Assay results reported in US4764521A, “Leukotriene antagonists and a method of use there as” (Eli Lilly and Company, priority 1986, dated 1988).

Columns and labels:
[1] = system: LTD4 evoked ileal contractions (guinea pig ileum); test: Inhibition of LTD4 evoked contractions in isolated ileum (single submaximal LTD4 response, five minute drug exposure); format: cell-based, Male, Hartley guinea pigs; details: Cavia porcellus, read-out: Percent inhibition of LTD4 evoked ileal contractions; for inhibition at 1 µM: Compound concentration 1 × 10^-6 M; for inhibition at 3 µM: Compound concentration 3 × 10^-6 M; for inhibition at 0.1 µM: Compound concentration 1 × 10^-7 M; for inhibition at 0.3 µM: Compound concentration 3 × 10^-7 M
Procedure: (§1) A section of terminal ileum was removed, the lumen cleaned, and the tissue divided into 2.5 cm. segments. The ilea were mounted in 10 ml. tissue baths containing Krebs-bicarbonate solution of the following composition in mmoles/ liter: KCl, 4.6; CaCl2 ·2H2 O, 1.2; KH2 PO4, 1.2; MgSO4 ·7H2 O, 1.2; NaCl, 118.2; NaHCO3, 24.8; and dextrose, 10.0. The bath fluid was maintained at 37° C. and aerated with 95 percent oxygen and 5 percent CO2. In addition, the buffer contained 1×10^- 6M atropine to reduce ileal spontaneous activity. Isometric measurements were made with a Grass FTO3C force-displacement transducer and recorded on a Grass polygraph as change in grams of force. A passive force of 0.5 g. was applied to the tissues. After an appropriate equilibration period, single submaximal control responses to pure LTD4 were obtained. Following a five minute exposure of the ileum to an experimental drug, the control concentration of LTD4 was added to the tissue bath. The response of the ileum to LTD4 in the presence of the drug was compared to the response in the absence of the drug. For some of the drugs in this series a more detailed analysis of LTD4 antagonism was made. In these experiments, cumulative concentration-response curves were obtained to LTD4 in guinea pig ileum and trachea. This was followed by a 30 minute incubation with various concentrations of the experimental drug. The concentration response curve to LTD4 was then repeated in the presence of the antagonist. Only one concentration of antagonist was used on a single tissue. KB values were calculated by the method of Furchgott [Ann. N.Y. Acad. Sci., 139, 553 (1967)]using the following equation. [formula]

[2] = target: T1, LTD4 (guinea pig ileum and trachea) (Cavia porcellus, UniProt Q2NNR5); test: LTD4 antagonism, cumulative concentration-response curves to LTD4 (KB / pA2, Schild); format: cell-based; details: negative log of KB, 30 minute incubation
T1 construct: A section of terminal ileum was removed, the lumen cleaned, and the tissue divided into 2.5 cm. segments; from tissue; host or cells: isolated ileum and trachea of guinea pig (ileum: male Hartley, terminal ileum)
T1 sequence (Q2NNR5 1-340): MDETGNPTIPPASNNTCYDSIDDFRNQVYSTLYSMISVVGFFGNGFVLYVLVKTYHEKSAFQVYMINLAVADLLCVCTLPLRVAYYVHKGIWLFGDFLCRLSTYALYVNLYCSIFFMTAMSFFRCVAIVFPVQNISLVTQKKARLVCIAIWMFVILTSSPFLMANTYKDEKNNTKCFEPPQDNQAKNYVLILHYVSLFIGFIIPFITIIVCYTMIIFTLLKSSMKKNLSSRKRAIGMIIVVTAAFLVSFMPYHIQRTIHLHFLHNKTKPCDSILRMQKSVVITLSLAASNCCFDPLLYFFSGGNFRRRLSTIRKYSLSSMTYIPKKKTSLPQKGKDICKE
Procedure: as §1, with “Male, Hartley guinea pigs weighing 200-450 grams were killed by decapitation. A section” for “A section”
Dose ratio refers to the concentration of agonist required to elicit 50 percent of the maximal response (ED50) in the presence of the antagonist divided by the ED50 in the absence of the antagonist. Calculations were performed with the aid of a computer and a digital plotter.

SMILES | inhibition at 1 µM [1] [%] | inhibition at 3 µM [1] [%] | inhibition at 0.3 µM [1] [%] | also measured
CCCc1c(OCCCCCC(=O)O)ccc(Cl)c1Cl [Example 1, 6-(2-Propyl-3,4-dichlorophenoxy)hexanoic acid] | 51 | 78 | – | –
CCCc1c(OCCCCc2nnn[nH]2)ccc(Cl)c1Cl [Example 2, 5-[4-(2-Propyl-3,4-dichlorophenoxy)butyl]-tetrazole] | 94 | – | 70 | Kb [2]: 100 nM; inhibition at 0.1 µM [1]: 56%
CCCc1c(OCCCCCc2nnn[nH]2)ccc(Cl)c1Cl [Example 3, 5-[5-(2-Propyl-3,4-dichlorophenoxy)pentyl]-tetrazole] | 75 | 92 | 51 | Kb ([2]; *estimated): 251 nM
CCCc1c(OCCCCCCc2nn[nH]n2)ccc(Cl)c1Cl [Example 4, 5-[6-(2-Propyl-3,4-dichlorophenoxy)hexyl]-tetrazole] | 84 | 96 | – | pA2 ([2]; *estimated): 7.0
CCCc1c(OCCCCc2nnn[nH]2)ccc(C(C)=O)c1Cl [Example 5, 5-[4-(2-Propyl-3-chloro-4-acetylphenoxy)butyl]-tetrazole] | – | – | 73 | Kb ([2]; *estimated): 105 nM; inhibition at 0.1 µM [1]: 49%
CCCCCCCCc1c(OCCCCCCc2nnn[nH]2)ccc(Cl)c1Cl [Example 6, 5-[6-(2-Octyl-3,4-dichlorophenoxy)hexyl]-tetrazole] | 53 | 59 | – | –
CCCCCCCCCCCCc1c(OCCCCCc2nnn[nH]2)ccc(Cl)c1Cl [Example 7, 5-[5-(2-Dodecyl-3,4-dichlorophenoxy)pentyl]tetrazole] | – | 16 | – | –
CCCc1c(OCCCSc2nn[nH]n2)ccc(Cl)c1Cl [Example 8, 5-[3-(2-Propyl1-3,4-dichlorophenoxy)propanethio]-tetrazole] | – | – | 79 | inhibition at 0.1 µM [1]: 59%
CCCCCc1c(OCCCCCC(=O)O)ccc(Cl)c1Cl [Example 9, 6-(2-Pentyl-3,4-dichlorophenoxy)hexanoic acid] | 21 | 57 | – | –
O=C(O)CCCCCOc1ccc(Cl)c(Cl)c1CCO [Example 10, 6-[2-(2-Hydroxyethyl)-3,4-dichlorophenoxy]hexanoic acid] | – | 22 | – | –
CCCc1c(OCCCCc2nnn[nH]2)ccc(Cl)c1O [Example 11, 5-[4-(2-Propyl-3-hydroxy-4-chlorophenoxy)butyl]-tetrazole] | – | 20 | – | Kb ([2]; *estimated): 3160 nM
CCCc1c(OCCCCCCC(=O)O)ccc(Cl)c1Cl [Example 12, 7-(2-Propyl-3,4-dichlorophenoxy)heptanoic acid] | – | 31 | – | –
